Data as given in patent EP0359821A1, “METHOD OF STERILIZING PLANT ANTHERS” (priority 1988, dated 1989).

Key:
in vivo = settings: mouse, LD50, weisse Mäuse
[1] = tested on: Diploider Roggen Sorte Gibrid 340/65; assay: Field trial of gametocidal activity, diploid rye Gibrid 340/65; settings: Gibrid 340/65 (text: 312/65), 1% aqueous emulsion, 10 kg/ha; for Anzahl von Körnern der Ähre bei freier Bestäubung / Anzahl von Körnern der Ähre im Isolator / Prozentsatz der Sterilität: V. and VI. periods; for Prozentsatz des Ansetzens bei freier Bestäubung: control = 100
[2] = tested on: Winterweizens Sorte Mironovskaya 808; assay: Field trial of gametocidal activity (anther sterilisation), winter wheat; format: in vivo, Weizen; settings: 2% aqueous emulsion, 20 kg/ha; for Anzahl von Körnern der Ähre bei freier Bestäubung / Anzahl von Körnern der Ähre im Isolator / percent sterility at 20000 g/ha: V. or VI. period of organogenesis; for percent sterility at 20000 g/ha: read-out: Prozentsatz der Sterilität; for response vs control in vivo at 20000 g/ha: control = 100, read-out: Prozentsatz des Ansetzens bei freier Bestäubung
[3] = tested on: Sommerweizen Sorte Moskovskaya 35; assay: Field trial of gametocidal activity, spring wheat; format: in vivo, Weizen; settings: 1% aqueous emulsion; for Anzahl von Körnern der Ähre bei freier Bestäubung / Anzahl von Körnern der Ähre im Isolator / percent sterility at 10000 g/ha: V. period; for percent sterility at 10000 g/ha: read-out: Prozentsatz der Sterilität
[4] = tested on: Diploider Roggen Sorte Kharkovskaya 55; assay: Field trial of gametocidal activity, diploid rye Kharkovskaya 55; settings: 1% aqueous emulsion, 6 kg/ha; for Anzahl von Körnern der Ähre bei freier Bestäubung / Anzahl von Körnern der Ähre im Isolator / Prozentsatz der Sterilität: V. and VI. periods; for Prozentsatz des Ansetzens bei freier Bestäubung: control = 100
[5] = tested on: Diploider Roggen Sorte Chulpan; assay: Field trial of gametocidal activity, diploid rye Chulpan; format: in vivo; settings: single compounds, 1% aqueous emulsion, 10 kg/ha; for Anzahl von Körnern der Ähre bei freier Bestäubung / Anzahl von Körnern der Ähre im Isolator / percent sterility at 10000 g/ha: Chulpan, V. or VI. period; for percent sterility at 10000 g/ha: read-out: Prozentsatz der Sterilität; for response vs control in vivo at 10000 g/ha: read-out: Prozentsatz des Ansetzens bei freier Bestäubung, Chulpan, control = 100
Excerpt: Bei Weizen und Tritikale werden Einzelisolatoren verwendet.
Pflanzen von diploidem Roggen Sorte Chulpan werden in der V. oder VI.
Der Verbrauch an Sterilisationsmitteln beträgt 10 kg/ha.

[6] = tested on: Tetraploider Roggen Sorte Belta; assay: Field trial of gametocidal activity, tetraploid rye Belta; format: in vivo; settings: 1% aqueous emulsion, 10 kg/ha
[7] = tested on: Hirse Sorte Mironovskoe 94; assay: Field trial of gametocidal activity, millet Mironovskoe 94; format: in vivo; settings: 1% aqueous emulsion, 10 kg/ha
[8] = tested on: Hirse Sorte K-9693 Kormovoe 1; assay: Field trial of gametocidal activity, millet K-9693 Kormovoe 1; settings: 1% aqueous emulsion, 10 kg/ha
Roggen Sorte Voskhod 2 = assay: Field trial of gametocidal activity, diploid rye Voskhod 2; format: in vivo; settings: 1% aqueous emulsion, 8 kg/ha
[9] = control = 100, read-out: Prozentsatz des Ansetzens bei freier Bestäubung

Molecule | LD50 (in vivo) | Anzahl von Körnern der Ähre bei freier Bestäubung [1] | Anzahl von Körnern der Ähre im Isolator [1] | Prozentsatz der Sterilität [1] | Prozentsatz des Ansetzens bei freier Bestäubung [1] | Anzahl von Körnern der Ähre bei freier Bestäubung [2] | Anzahl von Körnern der Ähre im Isolator [2] | percent sterility at 20000 g/ha [2] | response vs control in vivo at 20000 g/ha [2] | Anzahl von Körnern der Ähre bei freier Bestäubung ([3]; 10 kg/ha) | Anzahl von Körnern der Ähre im Isolator ([3]; 10 kg/ha) | percent sterility at 10000 g/ha ([3]; 10 kg/ha) | Anzahl von Körnern der Ähre bei freier Bestäubung [4] | Anzahl von Körnern der Ähre im Isolator [4] | Prozentsatz der Sterilität [4] | Prozentsatz des Ansetzens bei freier Bestäubung [4] | response vs control in vivo [3, 9] | Anzahl von Körnern der Ähre bei freier Bestäubung [5] | Anzahl von Körnern der Ähre im Isolator [5] | percent sterility at 10000 g/ha [5] | other results
Nc1ccc(C(=O)O)cc1 [Beispiel 38, Äthanolaminsalz der p-Aminobenzoesäure] | 2850 mg/kg | 52,8 | 3,2 | 93,4% | 97,8% | – | – | – | – | – | – | – | – | – | – | – | – | – | – | – | –
OCC(O)COc1ccc(Cl)cc1Cl (stereo not drawn) [Beispiel 6, 3-(2',4'-Dichlorphenoxy)-propandiol-I,2] | – | – | – | – | – | 35,0 | 0,8 | 97.9% | 86.4% | 26,0 | 0,1 | 99.9% | 41,6 | 0,0 | 100% | 90,2% | – | – | – | – | response vs control in vivo at 10000 g/ha ([3]; 10 kg/ha, control = 100, read-out: Prozentsatz des Ansetzens bei freier Bestäubung): 94.5%
O=C(COc1ccc(F)cc1)OCCCl [Beispiel I, β-Chloräthylester der 4-Fluorphenoxyessigsäure] | 400 mg/kg | 45,6 | 0,0 | 100% | 84,4% | 30,4 | – | 99.8% | – | 23,8 | 0,4 | 98.5% | 42,7 | 0,0 | 100% | 94,7% | 86.5% | – | – | – | –
O=[N+]([O-])c1ccc(OCC(O)CO)cc1 (stereo not drawn) [Beispiel 9, 3-(4'-Nitrophenoxy)-propandiol-I,2] | 100 to 600 mg/kg | 45,0 | 0,0 | 100% | 84,1% | 34,0 | 4,8 | 85.2% | 83.9% | – | – | – | – | – | – | – | – | 51,7 | 0,7 | 98.7% | response vs control in vivo at 10000 g/ha [5]: 91.2%; Anzahl von Körnern der Ähre bei freier Bestäubung ([6]; V. or VI. period): 39,7; Anzahl von Körnern der Ähre im Isolator ([6]; V. or VI. period): 0,0; response vs control in vivo at 10000 g/ha [6, 9]: 89.6%; Anzahl von Körnern der Rispe bei freier Bestäubung ([7]; V. or VI. period): 311,6; Anzahl von Körnern der Rispe im Isolator ([7]; V. or VI. period): 0,0; percent pollen sterility at 10000 g/ha ([7]; V. or VI. period, read-out: Prozentsatz der Sterilität): 100%; response vs control in vivo at 10000 g/ha [7, 9]: 82.1%
OCC(O)CSc1cccc(Cl)c1 (stereo not drawn) [Beispiel 8, 3-(3'-Chlorphenylthio)-propandiol-1,2] | 400 mg/kg | – | – | – | – | 32,7 | 2,6 | – | 80.7% | 24,6 | 0,8 | 99.7% | – | – | – | – | 89.5% | 52,1 | 0,0 | 100% | response vs control in vivo at 10000 g/ha [5]: 91.9%; Anzahl von Körnern der Rispe bei freier Bestäubung ([8]; V. or VI. period): 100,8; Anzahl von Körnern der Rispe im Isolator ([8]; V. or VI. period): 0,0; Prozentsatz der Sterilität ([8]; V. or VI. period): 100%; Prozentsatz des Ansetzens bei freier Bestäubung ([8]; control = 100): 68,7%
Äthanolaminsalz der Tetraphthalsäure [Beispiel 34] | – | – | – | – | – | – | – | – | – | – | – | – | – | – | – | – | – | – | – | – | Anzahl von Körnern der Ähre bei freier Bestäubung (Roggen Sorte Voskhod 2; V. or VI. period): 54,0; Anzahl von Körnern der Ähre im Isolator (Roggen Sorte Voskhod 2; V. or VI. period): 1,2; Prozentsatz der Sterilität (Roggen Sorte Voskhod 2; V. or VI. period): 97,6%; Prozentsatz des Ansetzens bei freier Bestäubung (Roggen Sorte Voskhod 2; control = 100): 98,9%
